The target in assay [1] is T1, Interstitial collagenase (Homo sapiens) (UniProt P03956).
T1 sequence (whole entry): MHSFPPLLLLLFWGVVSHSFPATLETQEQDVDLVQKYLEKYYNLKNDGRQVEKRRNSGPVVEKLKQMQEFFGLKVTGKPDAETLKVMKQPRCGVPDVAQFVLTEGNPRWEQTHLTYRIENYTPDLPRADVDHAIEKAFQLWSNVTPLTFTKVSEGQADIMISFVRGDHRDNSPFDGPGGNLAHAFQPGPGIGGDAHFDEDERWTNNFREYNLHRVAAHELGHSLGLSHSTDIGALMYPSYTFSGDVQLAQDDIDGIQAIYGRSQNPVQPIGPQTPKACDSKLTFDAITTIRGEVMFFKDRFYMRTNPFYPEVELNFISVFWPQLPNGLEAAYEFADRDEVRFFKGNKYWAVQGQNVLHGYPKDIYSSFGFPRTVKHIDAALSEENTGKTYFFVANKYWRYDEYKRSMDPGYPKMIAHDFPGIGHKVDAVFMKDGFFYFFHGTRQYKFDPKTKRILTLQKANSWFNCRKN
Briefly: In vitro inhibitory activity against matrix metallo proteinase-1 at 1 uM concentration.

Assay [2] has as its target Disintegrin and metalloproteinase domain-containing protein 17 (Homo sapiens, UniProt P78536). Briefly: Inhibitory activity against Tumor necrosis factor alpha converting enzyme.
The target in a further assay is Collagenase 3 (Homo sapiens, UniProt P45452). Briefly: In vitro inhibitory activity against matrix metalloprotease-13.
A short description of assay [3]: Ability to inhibit LPS-stimulated TNF production in THP-1 cells at 3 uM concentration. The assay is classed as functional. Particulars: Homo sapiens.
The target of a further assay is T2, Interstitial collagenase (Homo sapiens, UniProt P03956).
T2 sequence (P03956 whole entry): T1 sequence (whole entry)
Briefly: In vitro inhibitory activity against matrix metalloprotease-1.

By inhibition is commonly meant the share of the control response that was lost under treatment. A low value points to little suppression. As usually defined, the pIC50 is −log10 of the IC50, conventionally taken in molar units.

pIC50: −log10 of the molar value.

Sequence of Disintegrin and metalloproteinase domain-containing protein 17 (P78536 whole entry, the tested form may be a part): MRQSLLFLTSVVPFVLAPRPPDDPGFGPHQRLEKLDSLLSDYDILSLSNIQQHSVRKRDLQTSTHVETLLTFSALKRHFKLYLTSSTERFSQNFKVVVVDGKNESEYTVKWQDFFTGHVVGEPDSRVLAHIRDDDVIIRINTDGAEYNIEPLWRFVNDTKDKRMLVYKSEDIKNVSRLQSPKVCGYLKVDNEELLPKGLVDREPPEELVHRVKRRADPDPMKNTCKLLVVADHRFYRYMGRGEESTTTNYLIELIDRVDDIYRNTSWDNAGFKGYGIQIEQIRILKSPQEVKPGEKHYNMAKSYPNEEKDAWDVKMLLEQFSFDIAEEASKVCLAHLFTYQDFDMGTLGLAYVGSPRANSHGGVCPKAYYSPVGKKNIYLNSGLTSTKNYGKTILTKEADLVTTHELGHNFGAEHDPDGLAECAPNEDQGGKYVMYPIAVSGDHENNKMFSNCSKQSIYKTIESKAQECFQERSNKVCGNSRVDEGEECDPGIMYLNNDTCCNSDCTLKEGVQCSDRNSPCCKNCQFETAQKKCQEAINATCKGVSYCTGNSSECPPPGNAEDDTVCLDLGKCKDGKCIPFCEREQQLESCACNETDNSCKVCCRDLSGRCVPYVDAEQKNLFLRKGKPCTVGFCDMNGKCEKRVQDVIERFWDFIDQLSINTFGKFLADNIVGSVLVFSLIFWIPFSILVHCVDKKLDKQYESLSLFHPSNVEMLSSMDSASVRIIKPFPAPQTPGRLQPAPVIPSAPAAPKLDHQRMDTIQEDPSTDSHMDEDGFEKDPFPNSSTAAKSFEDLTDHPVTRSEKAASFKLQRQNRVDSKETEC

In assay [1], `CC#CCOc1ccc(S(=O)(=O)N2Cc3cc(N(C)CCc4ccccn4)ccc3N(C(C)=O)CC2C(=O)NO)cc1` (configuration not stated) yielded an inhibition of 19%. In addition, the pIC50 is 6.92 in assay [2] and 7.28 against Collagenase 3. The compound also registered an inhibition at 3 µM in assay [3] of 82%.
As for `CC#CCOc1ccc(S(=O)(=O)N2Cc3ccccc3N(C(=O)COC)CC2C(=O)NO)cc1` (configuration not stated), the pIC50 was 7.09 in assay [2], 6.07 against Interstitial collagenase and 7.01 at Collagenase 3. For the same compound, the inhibition at 3 µM in assay [3] is 73%.
With `CC#CCOc1ccc(S(=O)(=O)N2Cc3ccccc3N(C(=O)c3cccnc3)CC2C(=O)NO)cc1` (configuration not stated), the pIC50 in assay [2] was 7.05; against Interstitial collagenase it was 6.62; at Collagenase 3, 7.72. The same compound came in with an inhibition at 3 µM in assay [3] of 33%.
Turning to `CC#CCOc1ccc(S(=O)(=O)N2Cc3ccccc3N(C(=O)c3ccco3)CC2C(=O)NO)cc1` (configuration not stated), at 3 µM the inhibition in assay [3] was 74%.
Regarding `CC#CCOc1ccc(S(=O)(=O)N2Cc3ccc(CNC)cc3N(C(C)=O)CC2C(=O)NO)cc1` (configuration not stated), the pIC50 in assay [2] is 7.85; at Interstitial collagenase, 6.34; against Collagenase 3 it was 7.49. For the same compound, the inhibition at 3 µM in assay [3] was 81%.
The compound `CC#CCOc1ccc(S(=O)(=O)N2Cc3ccccc3N(C(C)=O)CC2C(=O)NO)cc1` (configuration not stated) came in with an inhibition at 3 µM in assay [3] of 60%.
Take `CC#CCOc1ccc(S(=O)(=O)N2Cc3ccc(CN(C)C)cc3N(C(C)=O)CC2C(=O)NO)cc1` (configuration not stated): the pIC50 in assay [2] was 7.74; on Interstitial collagenase, 6.04; on Collagenase 3, 7.17. In assay [3], this compound returned an inhibition at 3 µM of 70%.
Compound `CC#CCOc1ccc(S(=O)(=O)N2Cc3cc(OCCc4ccccc4)ccc3N(C(C)=O)CC2C(=O)NO)cc1` (configuration not stated) gave an inhibition in assay [1] of 45%. Moreover, the pIC50 in assay [2] is 7.44; against Collagenase 3, 7.55. For the same compound, the inhibition at 3 µM in assay [3] came to 83%.
In the case of `CC#CCOc1ccc(S(=O)(=O)N2Cc3ccc(CN4CCNCC4)cc3N(C(C)=O)CC2C(=O)NO)cc1` (configuration not stated), the pIC50 in assay [2] was 7.85; against Interstitial collagenase it was 6.32; against Collagenase 3, 7.77. Also, the inhibition at 3 µM in assay [3] worked out at 72%.
The matching figures for `CC#CCOc1ccc(S(=O)(=O)N2Cc3ccc(C(=O)NC)cc3N(C(C)=O)CC2C(=O)NO)cc1` (configuration not stated): 7.39, 6.09, 7.38 and 64%.
In the same order, the values of `CC#CCOc1ccc(S(=O)(=O)N2Cc3ccc(CO)cc3N(C(C)=O)CC2C(=O)NO)cc1` (configuration not stated) are 7.92, 6.30, 7.70 and 63%.
The matching figures for `CC#CCOc1ccc(S(=O)(=O)N2Cc3cc(N4CCOCC4)ccc3N(C(C)=O)CC2C(=O)NO)cc1` (configuration not stated): 6.89, 5.90, 7.48 and 73%.
Regarding `CC#CCOc1ccc(S(=O)(=O)N2Cc3cc(N(C)C)ccc3N(C(C)=O)CC2C(=O)NO)cc1` (configuration not stated), the values for the pIC50 (in assay [2]; at Interstitial collagenase; at Collagenase 3) were 6.71, 6.17 and 7.77, respectively. Besides, in assay [3], the inhibition at 3 µM is 33%.
As for `CC#CCOc1ccc(S(=O)(=O)N2Cc3cc(N4CCN(C)CC4)ccc3N(C(C)=O)CC2C(=O)NO)cc1` (configuration not stated), the pIC50 in assay [2] is 7.04; at Interstitial collagenase, 6.07; on Collagenase 3, 7.68. In assay [3], testing at 3 µM gave an inhibition of 75%.
Regarding `CC#CCOc1ccc(S(=O)(=O)N2Cc3cc(NCCc4ccccn4)ccc3N(C(C)=O)CC2C(=O)NO)cc1` (configuration not stated), the inhibition in assay [1] was 30%. The pIC50 in assay [2] was 7.31; against Collagenase 3 it was 7.33. In assay [3], this compound had an inhibition at 3 µM of 44%.
For `CC#CCOc1ccc(S(=O)(=O)N2Cc3ccccc3N(C(=O)c3cnccn3)CC2C(=O)NO)cc1` (configuration not stated), the pIC50 in assay [2] was 7.16; on Interstitial collagenase, 6.45; against Collagenase 3, 7.70. In addition, the inhibition at 3 µM in assay [3] amounted to 41%.
The matching figures for `CC#CCOc1ccc(S(=O)(=O)N2Cc3ccc(CNC(C)=O)cc3N(C(C)=O)CC2C(=O)NO)cc1` (configuration not stated): 7.51, 6.24, 7.92 and 46%.

The record behind these values is ChEMBL document CHEMBL1137145, “Benzodiazepine inhibitors of the MMPs and TACE. Part 2” (Bioorg Med Chem Lett, 2004).
